In US9200001B2, “Triazolyl PDE10 inhibitors” (Merck Sharp & Dohme Corp., priority 2011, dated 2015):

Columns and labels:
human PDE10A2 = human PDE10A2 (Homo sapiens (Human), UniProt Q9Y233); test: PDE10 fluorescence polarization (IMAP FP) inhibition assay; type: biochemical; details: FAM-labeled cAMP 50 nM, room temperature, read-out: PDE10a Ki
Method in brief: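 Cytoplasmic lysate of AD293 cells transiently expressing human PDE10A2, incubated 30 minutes at room temperature with 50 nM FAM-labeled cAMP in Tris pH 7.2 with MgCl2. Read by IMAP fluorescence polarization; 0% inhibition set by 1% DMSO, 100% by a reference PDE10 inhibitor.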

Chain of human PDE10A2 (Q9Y233 267-1055): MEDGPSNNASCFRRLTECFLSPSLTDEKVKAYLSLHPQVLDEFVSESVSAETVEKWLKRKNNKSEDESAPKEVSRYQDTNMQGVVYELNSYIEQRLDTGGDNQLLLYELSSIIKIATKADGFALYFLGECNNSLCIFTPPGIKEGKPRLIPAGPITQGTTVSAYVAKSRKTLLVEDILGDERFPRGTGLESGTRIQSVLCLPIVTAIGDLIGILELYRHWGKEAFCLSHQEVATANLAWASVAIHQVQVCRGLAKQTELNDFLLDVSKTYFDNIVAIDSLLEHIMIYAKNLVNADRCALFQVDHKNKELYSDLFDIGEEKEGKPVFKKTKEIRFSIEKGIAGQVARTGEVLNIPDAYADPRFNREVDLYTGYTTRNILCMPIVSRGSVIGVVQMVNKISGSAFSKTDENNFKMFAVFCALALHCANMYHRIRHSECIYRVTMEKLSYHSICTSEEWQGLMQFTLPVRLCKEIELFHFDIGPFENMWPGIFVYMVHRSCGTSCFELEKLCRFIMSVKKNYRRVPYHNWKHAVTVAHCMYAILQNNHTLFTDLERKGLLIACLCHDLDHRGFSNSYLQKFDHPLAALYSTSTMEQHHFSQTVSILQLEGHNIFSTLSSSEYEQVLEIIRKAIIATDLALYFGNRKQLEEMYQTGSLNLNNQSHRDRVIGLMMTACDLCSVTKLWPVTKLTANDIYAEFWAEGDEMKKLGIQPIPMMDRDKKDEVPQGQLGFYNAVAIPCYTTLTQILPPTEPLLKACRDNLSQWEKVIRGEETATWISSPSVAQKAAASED

SMILES	melting point [°C]	Ki (human PDE10A2) [nM]
Cc1nc(C)n(-c2cc([C@H]3C[C@@H]3c3nc4ccccc4n3C)nc(N3CCCC3)n2)n1 (relative stereo) [Cpd 116, trans-2-{2-[6-(3,5-dimethyl-1H-1,2,4-triazol-1-yl)-2-pyrrolidin-1-ylpyrimidin-4-yl]cyclopropyl}-1-methyl-1H-benzimidazole]	180 to 185	1.2
CCOc1nc([C@@H]2C[C@H]2c2nc3ccccc3n2C)cc(-n2nc(C)nc2C)n1 (relative stereo) [Example 14, trans-2-(2-(6-(3,5-dimethyl-1H-1,2,4-triazol-1-yl)-2-ethoxypyrimidin-4-yl)cyclopropyl)-1-methyl-1H-benzo[d]imidazole]	82 to 83	
CNc1nc([C@H]2C[C@@H]2c2nc3ccccc3n2C)cc(-n2nc(C)nc2C)n1 (relative stereo) [Example 3, trans-4-(3,5-dimethyl-1H-1,2,4-triazol-1-yl)-N-methyl-6-(2-(1-methyl-1H-benzo[d]imidazol-2-yl)cyclopropyl)pyrimidin-2-amine]	212 to 214	
Cc1nc(C)n(-c2cc([C@H]3C[C@@H]3c3nc4ccccc4n3C)nc(N3CCOCC3)n2)n1 (relative stereo) [Cpd 117, trans-2-{2-[6-(3,5-dimethyl-1H-1,2,4-triazol-1-yl)-2-morpholin-4-ylpyrimidin-4-yl]cyclopropyl}-1-methyl-1H-benzimidazole]	226 to 228	
Cc1nc(C)n(-c2cc([C@H]3C[C@@H]3c3nc4ccccc4n3C)nc(N(C)C)n2)n1 (relative stereo) [Cpd 114, trans-4-(3,5-dimethyl-1H-1,2,4-triazol-1-yl)-N,N-dimethyl-6-[2-(1-methyl-1H-benzimidazol-2-yl)cyclopropyl]pyrimidin-2-amine]	164 to 165	1.2
Cc1nc(C)n(-c2cc([C@H]3C[C@@H]3c3nc4ccccc4n3C)nc(C(N)=O)n2)n1 (relative stereo) [Cpd 130, trans-4-(3,5-dimethyl-1H-1,2,4-triazol-1-yl)-6-[2-(1-methyl-1H-benzimidazol-2-yl)cyclopropyl]pyrimidine-2-carboxamide]	119 to 121	1.6
Cc1nc([C@H]2C[C@@H]2c2nc3ccccc3n2C)cc(-n2nc(C)nc2C2CC2)n1 (stereo in doubt) [Cpd 85, 2-{2-[6-(5-cyclopropyl-3-methyl-1H-1,2,4-triazol-1-yl)-2-methylpyrimidin-4-yl]cyclopropyl}-1-methyl-1H-benzimidazole]		2.9
Cc1nc([C@H]2C[C@@H]2c2nc3ccccc3[nH]2)cc(-n2nc(C)nc2C)n1 [Cpd 90, 2-{(1S,2S)-2-[6-(3,5-dimethyl-1H-1,2,4-triazol-1-yl)-2-methylpyrimidin-4-yl]cyclopropyl}-1H-benzimidazole]		38
COCCOc1nc([C@@H]2C[C@H]2c2nc3ccccc3n2C)cc(-n2nc(C)nc2C)n1 [Cpd 65, 2-{(1R,2R)-2-[6-(3,5-dimethyl-1H-1,2,4-triazol-1-yl)-2-(2-methoxyethoxy)pyrimidin-4-yl]cyclopropyl}-1-methyl-1H-benzimidazole]		1.08
Cc1nc(C)n(-c2cc([C@@H]3C[C@H]3c3nc4ccccc4n3C)nc(C#N)n2)n1 [Cpd 61, 4-(3,5-dimethyl-1H-1,2,4-triazol-1-yl)-6-[(1R,2R)-2-(1-methyl-1H-benzimidazol-2-yl)cyclopropyl]primidine-2-carbonitrile]		0.085
Cc1ccc2nc(C3CC3c3cc(-n4nc(C)nc4C)nc(C)n3)[nH]c2c1 (stereo not shown) [Cpd 58, 2-(2-(6-(3,5-dimethyl-1H-1,2,4-triazol-1-yl)-2-methylpyrimidin-4-yl)cyclopropyl)-6-methyl-1H-benzo[d]imidazole]		34.9
Cc1nc(OCc2ccc3ccccc3n2)cc(-n2nc(C)nc2Cc2nc(C)sc2C)n1 [Cpd 9, 2,5-dimethyl-4-((3-methyl-1-(2-methyl-6-(quinolin-2-ylmethoxy)pyrimidin-4-yl)-1H-1,2,4-triazol-5-yl)methyl)thiazole]		62
Cc1nc(C)n(-c2cc([C@@H]3C[C@H]3c3nc4ccccc4n3C)nc(C#N)n2)n1 (relative stereo) [Example 21, trans-4-(3,5-dimethyl-1H-1,2,4-triazol-1-yl)-6-(2-(1-methyl-1H-benzo[d]imidazol-2-yl)cyclopropyl)pyrimidine-2-carbonitrile]	229 to 231	
Cc1nc(C2CC2c2nc3ccc(Cl)cc3[nH]2)cc(-n2nc(C)nc2C)n1 (stereo not shown) [Cpd 57, 6-chloro-2-(2-(6-(3,5-dimethyl-1H-1,2,4-triazol-1-yl)-2-methylpyrimidin-4-yl)cyclopropyl)-1H-benzo[d]imidazole]		30.7
COc1ccc(Cc2nc(C)nn2-c2cc(C3CC3c3nc4ccccc4n3C)nc(C)n2)cc1OC (stereo not shown) [Cpd 28, 2-(2-(6-(5-(3,4-dimethoxybenzyl)-3-methyl-1H-1,2,4-triazol-1-yl)-2-methylpyrimidin-4-yl)cyclopropyl)-1-methyl-1H-benzo[d]imidazole]		0.003
Cc1nc([C@@H]2C[C@H]2c2nc3ccccc3[nH]2)cc(-n2nc(C)nc2C)n1 [Cpd 89, 2-{(1R,2R)-2-[6-(3,5-dimethyl-1H-1,2,4-triazol-1-yl)-2-methylpyrimidin-4-yl]cyclopropyl}-1H-benzimidazole]		2.6
Cc1ccc(CCc2cc(-n3nc(C)nc3C)nc(C)n2)nc1 [Cpd 50, 4-(3,5-dimethyl-1H-1,2,4-triazol-1-yl)-2-methyl-6-(2-(5-methylpyridin-2-yl)ethyl)pyrimidine]		0.14
CNc1nc([C@@H]2C[C@H]2c2nc3ccccc3n2C)cc(-n2nc(C)nc2C)n1 [Cpd 62, 4-(3,5-dimethyl-1H-1,2,4-triazol-1-yl)-N-methyl-6-[(1R,2R)-2-(1-methyl-1H-benzimidazol-2-yl)cyclopropyl]pyrimidin-2-amine]		0.77
Cc1nc(C2CC2c2nc3ccc(OC(F)F)cc3[nH]2)cc(-n2nc(C)nc2C)n1 (stereo not shown) [Cpd 60, 6-(difluoromethoxy)-2-(2-(6-(3,5-dimethyl-1H-1,2,4-triazol-1-yl)-2-methylpyrimidin-4-yl)cyclopropyl)-1H-benzo[d]imidazole]		58.2
COc1ccc(Cc2nc(C)nn2-c2cc(/C=C/c3ccc4ncccc4n3)nc(C)n2)cc1OC [Cpd 13, (E)-2-(2-(6-(5-(3,4-dimethoxybenzyl)-3-methyl-1H-1,2,4-triazol-1-yl)-2-methylpyrimidin-4-yl)vinyl)-1,5-naphthyridine]		0.01
Cc1nc(C)n(-c2cc([C@@H]3C[C@H]3c3nc4ccccc4n3C)nc(O)n2)n1 (relative stereo) [Cpd 125, trans-4-(3,5-dimethyl-1H-1,2,4-triazol-1-yl)-6-[2-(1-methyl-1H-benzimidazol-2-yl)cyclopropyl]pyrimidin-2-ol]		19
Cc1nc([C@@H]2C[C@H]2c2nc3ccccc3n2CCN(C)C)cc(-n2nc(C)nc2C)n1 (stereo in doubt) [Cpd 72, 2-(2-{2-[6-(3,5-dimethyl-1H-1,2,4-triazol-1-yl)-2-methylpyrimidin-4-yl]cyclopropyl}-1H-benzimidazol-1-yl)-N,N-dimethylethanamine]		14.2
Cc1nc([C@@H]2C[C@H]2c2nc3ccc(F)cc3[nH]2)cc(-n2nc(C)nc2C)n1 [Cpd 68, 2-{(1R,2R)-2-[6-(3,5-dimethyl-1H-1,2,4-triazol-1-yl)-2-methylpyrimidin-4-yl]cyclopropyl}-6-fluoro-1H-benzimidazole]		9.2
Cc1nc(C)n(-c2cc([C@H]3C[C@@H]3c3nc4ccccc4n3C)nc(OC(C)C)n2)n1 (relative stereo) [Cpd 113, trans-2-{2-[6-(3,5-dimethyl-1H-1,2,4-triazol-1-yl)-2-(1-methylethoxy)pyrimidin-4-yl]cyclopropyl}-1-methyl-1H-benzimidazole]	133 to 135	0.62
COc1ccc2nc(C3CC3c3cc(-n4nc(C)nc4C)nc(C)n3)[nH]c2c1 (stereo not shown) [Cpd 59, 2-(2-(6-(3,5-dimethyl-1H-1,2,4-triazol-1-yl)-2-methylpyrimidin-4-yl)cyclopropyl)-6-methoxy-1H-benzo[d]imidazole]		30.5
CSc1nc([C@@H]2C[C@H]2c2nc3ccccc3n2C)cc(-n2nc(C)nc2C)n1 [Cpd 69, 2-{(1R,2R)-2-[6-(3,5-dimethyl-1H-1,2,4-triazol-1-yl)-2-(methylsulfanyl)pyrimidin-4-yl]cyclopropyl}-1-methyl-1H-benzimidazole]		0.37
Cc1nc(C)n(-c2cc([C@H]3C[C@@H]3c3nc4ccccc4n3C)nc(C(F)(F)F)n2)n1 (relative stereo) [Cpd 109, trans-2-{2-[6-(3,5-dimethyl-1H-1,2,4-triazol-1-yl)-2-(trifluoromethyl)pyrimidin-4-yl]cyclopropyl}-1-methyl-1H-benzimidazole]		1.4
COc1ccc(Cc2nc(C)nn2-c2cc(C3CC3c3nnc(C)o3)nc(C)n2)cc1OC (stereo not shown) [Cpd 27, 2-(2-(6-(5-(3,4-dimethoxybenzyl)-3-methyl-1H-1,2,4-triazol-1-yl)-2-methylpyrimidin-4-yl)cyclopropyl)-5-methyl-1,3,4-oxadiazole]		88
Cc1nc(C2CC2c2nc3cc(F)c(F)cc3[nH]2)cc(-n2nc(C)nc2C)n1 (stereo not shown) [Cpd 54, 2-(2-(6-(3,5-dimethyl-1H-1,2,4-triazol-1-yl)-2-methylpyrimidin-4-yl)cyclopropyl)-5,6-difluoro-1H-benzo[d]imidazole]		25.1
COC[C@@H](C)Oc1nc([C@@H]2C[C@H]2c2nc3ccccc3n2C)cc(-n2nc(C)nc2C)n1 [Cpd 66, 2-[(1R,2R)-2-{6-(3,5-dimethyl-1H-1,2,4-triazol-1-yl)-2-[(1R)-2-methoxy-1-methylethoxy]pyrimidin-4-yl}cyclopropyl]-1-methyl-1H-benzimidazole]		0.63
